In patent US4071408A, “Neuraminidase” (Research Corporation, priority 1976, dated 1978):
Several values for one entry are separate records, joined by “and”; a condition that tells them apart may be missing. Identical values can stand only once.

Test system: Arthrobacter sialophilum neuraminidase (NANAase, E.C.3.2.1.18), purified extracellular enzyme
Assay: Neuraminidase kinetics and effector tests (release of N-acetylneuraminic acid, citrate-phosphate buffer pH 6.0, 37° C.)
Format: biochemical
Protocol: Neuraminidase and related assays. The activity of enzyme preparations was determined as follows: A reaction mixture containing 40 μmols of citrate-phosphate buffer, pH 6.0, 1.0 mg of Collocalia mucoid and the enzyme fraction in a final volume of 0.50 ml was incubated at 37° C. Aliquots of 0.20 ml were withdrawn at 5 and 10 minutes, and the N-acetylneuraminic acid determined. In all experiments, zero time points were run for each extract. A unit of enzyme activity is defined as that amount which releases 1 μmol of N-acetylneuraminic acid per minute from the mucoid preparation, under conditions of the standard assay given above. Specific activity is expressed as units/mg of protein. Protein was determined with crystalline bovine serum albumin as standard. N-acetylneuraminate pyruvatelyase assays were carried out.
Enzyme characteristics. Enzyme activity increased linearly with concentration up to 0.28 mg/ml protein. The effect of pH on the activity was examined in citrate-phosphate buffer. A pH activity profile with Collocalia mucoid gave a broad optimum around 5-6. The Km values for Collocalia mucoid and N-acetylneuraminlactose were determined from the kinetic data given as inverse plots. […]

`O=C(O)CN(CCN(CC(=O)O)CC(=O)O)CC(=O)O` [EDTA] was tested, and the “effect of EDTA on neuraminidase activity” value (EDTA between 10^-3 M and 10^-2 M, included in the assay mixture or preincubated with the enzyme for 30 min at 37° C.) was “no effect”.
N-acetylneuraminlactose was tested, and the Km (apparent Km from inverse plots of kinetic data, purified enzyme, read-out: Km for N-acetylneuraminlactose) was ~3.3 mM and 3.3 mM.
